{"source": "patent US20250352520A1", "about": "“USE OF DEXPRAMIPEXOLE FOR THE TREATMENT OF EOSINOPHILIC COPD” (Areteia Therapeutics, Inc., priority 2024, published 2025)", "details": "Week 4; >=50% AEC reduction at Week 16", "data": [{"smiles": "CCCN[C@@H]1CCc2nc(N)sc2C1", "note": "[Dexpramipexole, (6R)-2-amino-4,5,6,7-tetrahydro-6-(propylamino)benzothiazole]", "values": [{"measurement": "Pre-BD FEF25-75 % change from baseline, Max", "result": 41, "unit": "%"}, {"measurement": "Pre-BD FEF25-75 % change from baseline, Mean ± SD", "result": "11.4 ± 25.76", "unit": "%"}, {"measurement": "Pre-BD FEF25-75 % change from baseline, Median", "result": "−2.2", "unit": "%"}, {"measurement": "Pre-BD FEF25-75 % change from baseline, Min", "result": "−5", "unit": "%"}, {"measurement": "Pre-BD FEF25-75 % change from baseline, Q1", "result": "−5", "unit": "%"}, {"measurement": "Pre-BD FEF25-75 % change from baseline, Q3", "result": 41, "unit": "%"}, {"measurement": "Pre-BD FEF25-75 Observed, Max", "result": 1030, "unit": "mL/s"}, {"measurement": "Pre-BD FEF25-75 Observed, Mean ± SD", "result": "710.0 ± 446.43", "unit": "mL/s"}, {"measurement": "Pre-BD FEF25-75 Observed, Median", "result": 900.0, "unit": "mL/s"}, {"measurement": "Pre-BD FEF25-75 Observed, Min", "result": 200, "unit": "mL/s"}, {"measurement": "Pre-BD FEF25-75 Observed, Q1", "result": 200, "unit": "mL/s"}, {"measurement": "Pre-BD FEF25-75 Observed, Q3", "result": 1030, "unit": "mL/s"}, {"measurement": "Pre-BD FEF25-75 change from baseline, Max", "result": 300, "unit": "mL/s"}, {"measurement": "Pre-BD FEF25-75 change from baseline, Mean ± SD", "result": "90.0 ± 181.93", "unit": "mL/s"}, {"measurement": "Pre-BD FEF25-75 change from baseline, Median", "result": -10.0, "unit": "mL/s"}, {"measurement": "Pre-BD FEF25-75 change from baseline, Min", "result": -20, "unit": "mL/s"}, {"measurement": "Pre-BD FEF25-75 change from baseline, Q1", "result": -20, "unit": "mL/s"}, {"measurement": "Pre-BD FEF25-75 change from baseline, Q3", "result": 300, "unit": "mL/s"}, {"measurement": "Pre-BD FEV1 % change from baseline, Max", "result": 62, "unit": "%"}, {"measurement": "Pre-BD FEV1 % change from baseline, Mean ± SD", "result": "24.8 ± 32.69", "unit": "%"}, {"measurement": "Pre-BD FEV1 % change from baseline, Median", "result": 9.7, "unit": "%"}, {"measurement": "Pre-BD FEV1 % change from baseline, Min", "result": 2, "unit": "%"}, {"measurement": "Pre-BD FEV1 % change from baseline, Q1", "result": 2, "unit": "%"}, {"measurement": "Pre-BD FEV1 % change from baseline, Q3", "result": 62, "unit": "%"}, {"measurement": "Pre-BD FEV1 Observed, Max", "result": 2110, "unit": "mL"}, {"measurement": "Pre-BD FEV1 Observed, Mean ± SD", "result": "1540.0 ± 678.16", "unit": "mL"}, {"measurement": "Pre-BD FEV1 Observed, Median", "result": 1720.0, "unit": "mL"}, {"measurement": "Pre-BD FEV1 Observed, Min", "result": 790, "unit": "mL"}, {"measurement": "Pre-BD FEV1 Observed, Q1", "result": 790, "unit": "mL"}, {"measurement": "Pre-BD FEV1 Observed, Q3", "result": 2110, "unit": "mL"}, {"measurement": "Pre-BD FEV1 change from baseline, Max", "result": 810, "unit": "mL"}, {"measurement": "Pre-BD FEV1 change from baseline, Mean ± SD", "result": "306.7 ± 436.16", "unit": "mL"}, {"measurement": "Pre-BD FEV1 change from baseline, Median", "result": 70.0, "unit": "mL"}, {"measurement": "Pre-BD FEV1 change from baseline, Min", "result": 40, "unit": "mL"}, {"measurement": "Pre-BD FEV1 change from baseline, Q1", "result": 40, "unit": "mL"}, {"measurement": "Pre-BD FEV1 change from baseline, Q3", "result": 810, "unit": "mL"}, {"measurement": "Pre-BD FVC % change from baseline, Max", "result": 32, "unit": "%"}, {"measurement": "Pre-BD FVC % change from baseline, Mean ± SD", "result": "15.7 ± 14.81", "unit": "%"}, {"measurement": "Pre-BD FVC % change from baseline, Median", "result": 11.4, "unit": "%"}, {"measurement": "Pre-BD FVC % change from baseline, Min", "result": 3, "unit": "%"}, {"measurement": "Pre-BD FVC % change from baseline, Q1", "result": 3, "unit": "%"}, {"measurement": "Pre-BD FVC % change from baseline, Q3", "result": 32, "unit": "%"}, {"measurement": "Pre-BD FVC Observed, Max", "result": 3330, "unit": "mL"}, {"measurement": "Pre-BD FVC Observed, Mean ± SD", "result": "2790.0 ± 497.59", "unit": "mL"}, {"measurement": "Pre-BD FVC Observed, Median", "result": 2690.0, "unit": "mL"}, {"measurement": "Pre-BD FVC Observed, Min", "result": 2350, "unit": "mL"}, {"measurement": "Pre-BD FVC Observed, Q1", "result": 2350, "unit": "mL"}, {"measurement": "Pre-BD FVC Observed, Q3", "result": 3330, "unit": "mL"}, {"measurement": "Pre-BD FVC change from baseline, Max", "result": 810, "unit": "mL"}, {"measurement": "Pre-BD FVC change from baseline, Mean ± SD", "result": "380.0 ± 379.87", "unit": "mL"}, {"measurement": "Pre-BD FVC change from baseline, Median", "result": 240.0, "unit": "mL"}, {"measurement": "Pre-BD FVC change from baseline, Min", "result": 90, "unit": "mL"}, {"measurement": "Pre-BD FVC change from baseline, Q1", "result": 90, "unit": "mL"}, {"measurement": "Pre-BD FVC change from baseline, Q3", "result": 810, "unit": "mL"}, {"measurement": "Pre-BD Peak Flow % change from baseline, Max", "result": 143, "unit": "%"}, {"measurement": "Pre-BD Peak Flow % change from baseline, Mean ± SD", "result": "63.4 ± 69.42", "unit": "%"}, {"measurement": "Pre-BD Peak Flow % change from baseline, Median", "result": 28.2, "unit": "%"}, {"measurement": "Pre-BD Peak Flow % change from baseline, Min", "result": 18, "unit": "%"}, {"measurement": "Pre-BD Peak Flow % change from baseline, Q1", "result": 18, "unit": "%"}, {"measurement": "Pre-BD Peak Flow % change from baseline, Q3", "result": 143, "unit": "%"}, {"measurement": "Pre-BD Peak Flow Observed, Max", "result": 382, "unit": "L/min"}, {"measurement": "Pre-BD Peak Flow Observed, Mean ± SD", "result": "260.7 ± 108.49", "unit": "L/min"}, {"measurement": "Pre-BD Peak Flow Observed, Median", "result": 227.0, "unit": "L/min"}, {"measurement": "Pre-BD Peak Flow Observed, Min", "result": 173, "unit": "L/min"}, {"measurement": "Pre-BD Peak Flow Observed, Q1", "result": 173, "unit": "L/min"}, {"measurement": "Pre-BD Peak Flow Observed, Q3", "result": 382, "unit": "L/min"}, {"measurement": "Pre-BD Peak Flow change from baseline, Max", "result": 225, "unit": "L/min"}, {"measurement": "Pre-BD Peak Flow change from baseline, Mean ± SD", "result": "100.7 ± 108.29", "unit": "L/min"}, {"measurement": "Pre-BD Peak Flow change from baseline, Median", "result": 50.0, "unit": "L/min"}, {"measurement": "Pre-BD Peak Flow change from baseline, Min", "result": 27, "unit": "L/min"}, {"measurement": "Pre-BD Peak Flow change from baseline, Q1", "result": 27, "unit": "L/min"}, {"measurement": "Pre-BD Peak Flow change from baseline, Q3", "result": 225, "unit": "L/min"}]}]}
